Read-outs that look alike come from different tables or passages of the source.
Assays:
[1] = Relaxivity in Water and Plasma; type: physicochemical; settings: 20 MHz, 37° C; for relaxivity r1 (plasma): in plasma; for relaxivity r1 (H2O): in water
Description: Relaxivity values (mM^-1 s^-1) have been determined in water and in plasma at 20 MHz and 37° C.

mice [2] = test: Toxicity Studies in Mice, LD50 i.v.; type: in vivo
Source text: The LD50 value of the tris(ligand) iron(III) complex of ligand IX, Fe-DIOLMAL, has been determined i.v. in mice and found to be ca. 20.0 mmol/kg bw.

mice [3] = settings: metal chloride salts in aqueous solution, i.p.; cited from earlier work

Compound | relaxivity r1 (plasma) [1] | relaxivity r1 (H2O) [1] | LD50 (mice [2]) | LD50 (mice [3])
Cc1c([O-])c(=O)ccn1CCC(=O)O.Cc1c([O-])c(=O)ccn1CCC(=O)O.Cc1c([O-])c(=O)ccn1CCC(=O)O.[Fe+3] [Fe-BETALA] | 2.1 mM⁻¹ s⁻¹ | 1.8 mM⁻¹ s⁻¹ | – | –
Cc1c([O-])c(=O)ccn1CCO.Cc1c([O-])c(=O)ccn1CCO.Cc1c([O-])c(=O)ccn1CCO.[Fe+3] [Fe-ETOHMAL] | 2.0 mM⁻¹ s⁻¹ | 1.7 mM⁻¹ s⁻¹ | ca. 7.5 mmol/kg bw | –
[Gd] [gadolinium] | – | – | – | 1.4 mmol/kg
[Mn+2] [manganese] | – | – | – | 1.5 mmol/kg
iron | – | – | – | 1.6 mmol/kg

— patent US6294152A, “Iron(III) complexes as contrast agents for image enhancement in magnetic resonance imaging” (The University of Toledo, priority 1999, dated 2001)
